Assays:
[1] = tested on: CD44-positive HuH7 cells (cancer stem cells); assay: Inhibitory effect on cancer stem cells (FACS analysis, CD44); format: cell-based, human; conditions: IC-2 50 μM, PN3-13 10 μM, 5-FU 0.5 μM, two days, vs DMSO control
Description: The following protocol was used to investigate an inhibitory effect of each low-molecular-weight compound on cancer stem cells. CD44, a cancer stem cell marker, was used as an index. HuH7 cells at 70 to 90% confluency were collected and 1.5×10^6 cells were seeded on a 10-cm dish (TPP Techno Plastic Products AG, Trasadingen, Switzerland). After 15 hours, the cells were treated with each of Hexachlorophene (15 μM), ICG-001 (15 μM), PKF118-310 (5 μM), IC-2 (50 μM), PN3-13 (10 μM), and 5-FU (0.5 μM) and were incubated at 37° C. DMSO, which was a solvent for each of the low-molecular-weight compounds and anti-cancer drugs, was used as a control. Two days after the chemical treatment, the cells on a dish were collected. Next, the cells were centrifuged at 1000 rpm for 5 min at 4° C. to remove a supernatant. Then, the cells were washed twice with 1 mL of 0.5% FBS/2 mM EDTA/PBS. After that, the cells were suspended in 500 μL of 5% BSA/0.5% FBS/2 mM EDTA/PBS and blocked once for 15 min at 4° C.
Next, 5 μL of an anti-human CD44 monoclonal antibody (Cell Signaling Technology Inc., Danvers, Mass., USA) was added. Then, the cells were suspended and a primary antibody reaction was performed in a dark room for 10 min at 4° C. After that, the cells were washed 3 times with 1 mL of PBS. […] Note that a significant difference was evaluated by using Student's t-test (two-tailed). […]

[2] = tested on: Wnt/β-catenin signal; assay: Luciferase assay in HuH7 cells stably expressing pTCF4-CMVpro-Luc; format: cell-based; conditions: HuH7 reporter cells; two days after treatment
Description: First, 30 μg of a pTCF4-CMVpro-Luc was added to 5×10^6 HuH7 cells and the plasmid was introduced using a Cellject Pro (Thermo, Massachusetts, USA) (at 250 V, 1500 μF). Twenty-four hours after the gene introduction, 2 μg/mL of puromycin was added. Then, the cells were selected while a medium was changed every 3 to 5 days. It was observed that colonies of the pTCF4-CMVpro-Luc-containing HuH7 cells were formed at 20 days after initiation of the selection. A cloning ring, which was manufactured such that an end portion of a blue tip was cut, (the bottom edge of the cloning ring was provided with vaseline), was then used to surround one of the colonies formed. Subsequently, 30 μL of a 0.25% Trypsin/1 mM EDTA solution, which was prepared by diluting a stock solution 5-fold with PBS, was added to detach and collect the cells. […]
Next, a luciferase assay was conducted. […] Subsequently, 10 μL of the cell lysate prepared by using PLB in the 24-well plate was added to the tube, and the luciferase activity was measured by using a MiniLumat LB 9506 (Berthold Technologies, Bad Wildbad, German).
First, the HuH7 cells that were at 70 to 90% confluency and stably expressed the pTCF4-CMVpro-Luc were collected, and the 1×10^4 cells were seeded in each well of a 96-well plate (FALCON). […] Then, a fluorescence plate reader Infinite F500 (TECAN, Zurich, Switzerland) was used to measure luciferase activity.

[3] = tested on: CD44^high DLD-1 cells; assay: Inhibitory effect on cancer stem cells in colon cancer (CD44 FACS); format: cell-based, human; conditions: IC-2 50 μM, 5-FU 0.5, 5 μM, 48 hours, vs control
Description: First, 1×10^6 DLD-1 cells were seeded on a 10-cm dish. After 24 hours, the cells were treated with 5-FU (0.5, 5 μM) or IC-2 (50 μM). After additional 48 hours, the cells were harvested. An anti-human CD44 antibody (Abcam Ltd., Cambridge, UK) was used as a primary antibody and an Alexa 488-labeled goat anti-mouse IgG antibody (Life Technologies Corp., Carlsbad, Calif., USA) was then used. After that, analysis was performed by using a MoFlo XDP (Beckman Coulter Inc., Fullerton, Calif.).

Row | SMILES | number of cancer stem cells (CD44-positive cells) [1] | inhibitory effect on a Wnt/β-catenin signal (luciferase activity) [2] | proportion of CD44^high cells [3]
1 | O=c1[nH]cc(F)c(=O)[nH]1 [5-FU, reference compound] | rather increased the number of cancer stem cells | exerted no inhibitory effect | rather increased the proportion
2 | O=C1[C@H](Cc2ccccc2)N2C(=O)CCN(C(=O)NCc3ccccc3)[C@H]2CN1Cc1cccc2ccccc12 [IC-2] | significantly less than that of the control | exerted an inhibitory effect | significantly decreased the proportion of CD44^high cells

Source: patent publication US11213527B2, “Inhibitory effect of low molecular weight compound on cancer and fibrosis” (NATIONAL UNIVERSITY CORPORATION TOTTORI UNIVERSITY, priority 2014, dated 2022)
